The subject of experiment [1] is implantation. Description: Other studies: L-NAME effects on implantation combined with low-dose onapristone. The class given is in vivo. The following applies: onapristone low-dose 0.1-0.3 mg/animal/day together with L-NAME.
The test system of experiment [2] is uterine blood flow. The following applies: low dose aspirin, patients with impeded blood flow; cited from earlier work.
In experiment [3] the test system is uterine strips from rats at mid to near term gestation. The following applies: cited from earlier work.
Experiment [4] relates to implantation in rats. Description: Effects of L-NAME on implantation in pregnant rats (FIG. 1 and FIG. 2). Type of experiment: in vivo. How it is done:
The animals were treated with 25 and 50 mg/animal/day L-NAME administered via continuous s.c. infusion from day 1 post coitum (p.c.) until day 7 p.c The autopsy was performed on day 12 p.c.
The animals were treated with 25 and 50 mg/animal/day L-NAME administered via continuous s.c. infusion on day 5-7 (p.c.). The autopsy was performed on either day 9 p.c. or day 12 p.c.
In the experiments whose results are shown in FIG. 1, pregnant rats (n=6/group) were treated with 25 and 50 mg/animal/day L-NAME from day 1 p.c. until day 7 p.c., i.e. during the period of pre-implantation and early implantation (in rats implantation takes place on day 5 p.c. ). The control animals were treated with the vehicle. During autopsy (days 9 and 12 p.c.) the implantation sites were assessed macroscopically, their diameter was measured, and the weights of isolated implantation sites (embryonic and placental tissues) were recorded. FIG. 2 presents results from a second study In pregnant rats in which L-NAME (25 and 50 mg/anilal/day) treatment was performed on days 5-7 p.c., i.e. shortly after nidation had taken place. The autopsy was performed on day 12 p.c. Implantation showing haemorrhagic changes were defined as pathological implantation sites.

Where [5] appears, read: 25 and 50 mg/animal/day s.c. infusion, autopsy day 9 or 12 p.c.

The source of these data is patent US20020169205A1, “Implantation rates after in vitro fertilization, and treatment of infertility and early pregnancy loss with a nitric oxide donor or substrate alone or in combination with progesterone, and a method for contraception with nitric oxide inhibitors in combination with antiprogestins or other agents” (priority 1998, published 2002).

In the case of `CN(C)c1ccc([C@H]2C[C@]3(C)[C@@H](CC[C@]3(O)CCCO)[C@@H]3CCC4=CC(=O)CCC4=C32)cc1` [onapristone], the “L-NAME-induced effects on implantation with added antiprogestin” value in experiment [1] was “enhanced”.

Turning to `CC(=O)Oc1ccccc1C(=O)O` [aspirin], the “effect on uterine blood flow” value in experiment [2] was “only marginal”.

Turning to `N=C(N)NCCC[C@H](N)C(=O)O` [L-arginine], the “relaxation of spontaneous activity of uterine strips” value in experiment [3] is “rapid and substantial relaxation”.

Turning to `COC(=O)[C@@H](N)CCCNC(=N)N[N+](=O)[O-]` [L-NAME, NG-nitro-L-arginine methyl ester], the effect on implantation result in experiment [4] (25 and 50 mg/animal/day continuous s.c. infusion, day 1-7 p.c. or days 5-7 p.c.) is reported as “profound effect on implantation”. In addition, in experiment [4] (setting [5]), the “size of the implantation sites” value was “dose-dependent inhibition” and the “weight of the implantation sites” value was “dose-dependent inhibition”. Moreover, in experiment [4] (25 and 50 mg/animal/day s.c. infusion, haemorrhagic changes defined as pathological), the “pathological changes in the implantation sites” value is “induced pathological changes in the implantation sites (mainly haemorrhages)”.
